Oligonucleotides are written 5' to 3', each unit as a sugar letter and its base; * is a phosphorothioate linkage, no mark a phosphodiester; rarer units and linkages stand in square brackets, end groups in braces. Plain capitals give the bases only. d = 2'-deoxy (DNA)
Columns and labels:
[1] = test system: acpP::gfp reporter transcript; assay: In vitro translation (PURExpress) and anti-GFP western blot; type: biochemical, Salmonella enterica; set-up: key to Inhibition of translation in vitro: -: Effect strength is represented by additional (+) signs.; Effect strength is represented by additional (+) signs.; ++: Effect strength is represented by additional (+) signs.; +++: Effect strength is represented by additional (+) signs; conditions: unconjugated ASO; for GFP Expression (%): RNA 100 nM, 2 h 37 °C, relative to water control; for Inhibition of translation in vitro: summary grade; for Inhibition of in vitro translation of acpP::gfp (in words): western blot of AcpP-GFP fusion protein
Text: For the generation of target RNA::gfp fusion constructs, we used a previously established protocol ([31]) and the oligonucleotides JVO-19760/JVO-19761 (Supplementary Table 1) to amplify the genomic region spanning nucleotides –40 to + 51 relative to the translational start codon of acpP. The sense oligonucleotide was fused to a T7 promoter sequence for subsequent transcription of the final fusion construct in vitro. The antisense oligonucleotide contained a 30 nt overlapping region with gfp for subsequent fusion PCR with full length gfp (pXG-10; JVO-19762/JVO-19763) (Supplementary Table 1). The PCR products were purified with NucleoSpin Gel and PCR Clean-up (Macherey-Nagel) according to the manufacturer’s instructions and DNA concentration was quantified with a NanoDrop spectrophotometer (A260 nm).
PCR products were used for T7 RNA polymerase-driven transcription in vitro using the MEGAscript T7 kit (Ambion/Thermo Scientific), according to the manufacturer’s instructions and analogous to our previous publication ([31]). The concentration of the RNA solution was quantified with Qubit (Fisher Scientific) and the expected product size and RNA integrity was verified on a 6% PAA, 7 M urea gel.
For in vitro translation of target RNA::gfp fusion constructs, the PURExpress® In Vitro Protein Synthesis Kit (New England Biolabs, E6800L) was used as described previously ([31]). Briefly, the final volume of each in vitro translation reaction was set to 10 µL. 1µL of different concentrations of ASOs ranging from 10 µM to 0.625 µM were added to 1 µL of in vitro transcribed heat-denatured RNA (1µM) to adjust the final RNA concentration to 100 nM. The mixtures were pre-incubated at 37 °C for 5 min. Then 4 µL of Solution A and 3 µL of Solution B were added to the pre-annealed mixtures. After 2 h at 37 °C, protein samples were denatured in 1x reducing protein loading buffer (62.6 mM Tris–HCl pH 6.8, 2 % SDS, 0.1 mg/mL bromphenol blue, 15.4 mg/mL DTT, 10 % glycerol) at 95 °C for 5 min.
To visualise in vitro translated proteins, samples were separated on SDS-PAA (12 % PAA) gels, with subsequent semi-dry western blot transfer on polyvinylidene fluoride (PVDF) membranes. Membranes were blocked with 10% skim milk (in 1x TBS-T) for 1 h and probed with anti-GFP antibody (1:1,000; Sigma-Aldrich) in 5 % skim milk (in 1x TBS-T) overnight at 4 °C. After washing in 1x TBS-T and incubation with an HRP-conjugated secondary antibody (1:5,000; ThermoScientific) in 1x TBS-T, the membrane was incubated with developing solution kit (Amersham™ ECL Select™ Western Blotting Detection Reagent) and protein levels were detected using an ImageQuant LAS 500 (GE Healthcare Life Sciences). Images were processed and band intensities quantified using ImageJ. Protein bands were normalized to the water control.

Salmonella = Salmonella growth assay; type: cell-based, Salmonella enterica serovar Typhimurium strain SL1344; set-up: key to Antibacterial activity: -: Effect strength is represented by additional (+) signs.; Effect strength is represented by additional (+) signs.; ++: Effect strength is represented by additional (+) signs.; +++: Effect strength is represented by additional (+) signs; conditions: for Effect on Salmonella growth (in words): KFF-ASO conjugates or unconjugated peptide, 24 h growth kinetics, OD600, MHB, 37 °C, up to 10 µM; for Antibacterial activity: summary grade, ASO conjugated to the carrier peptide
Protocol: An overnight bacterial cell culture was diluted 1:100 in fresh MHB and grown to OD600 0.5. The obtained culture was diluted to approximately 10^5 cfu/ml in non-cation-adjusted MHB. Subsequently, 190 µl bacterial solution was dispensed into a 96-well plate (Thermo Fisher Scientific) along with 10 µl of a 200 µM solution of the ASOs. Growth was monitored by measuring the OD at 600 nm every 20 min in a Synergy H1 plate reader (Biotek) with continuous double-orbital shaking (237 cpm) at 37 °C for 24 h.

Substance | GFP Expression (%) ([1]; acpP-RNA : ASO 1 : 0.625) | GFP Expression (%) ([1]; acpP-RNA : ASO 1 : 1.25) | GFP Expression (%) ([1]; acpP-RNA : ASO 1 : 2.5) | GFP Expression (%) ([1]; acpP-RNA : ASO 1 : 5) | GFP Expression (%) ([1]; acpP-RNA : ASO 1 : 10) | Inhibition of translation in vitro [1] | Effect on Salmonella growth (in words) (Salmonella) | Antibacterial activity (Salmonella) | Inhibition of in vitro translation of acpP::gfp (in words) [1]
DNA-PTO: 10mer phosphorothioate-modified DNA antisense oligomer, sequence CTCATACTCT, targeting acpP (antisense dC*dT*dC*dA*dT*dA*dC*dT*dC*dT) | 110.7 | 106.7 | 104.6 | 96.5 | 96.3 | - | slight growth retardation was observed at 5 µM and 10 µM | - | 
LNA: 10mer 2'-4'-locked RNA antisense oligomer, sequence CTCATACTCT, targeting acpP (all LNA, backbone and methylation of C not given here) | 97.8 | 38.1 | 8.0 | 6.5 | 4.5 |  | slight growth retardation was observed at 5 µM and 10 µM | - | substantially blocking in vitro translation of acpP::gfp at 1.25x molar excess
PMO: 10mer phosphorodiamidate morpholino antisense oligomer, sequence CTCATACTCT, targeting acpP (all phosphorodiamidate morpholino (PMO)) | 117.0 | 104.6 | 92.7 | 60.4 | 28.3 |  |  | + | 
PNA: 10mer peptide nucleic acid antisense oligomer, sequence CTCATACTCT, targeting acpP (all peptide nucleic acid (PNA)) | 106.8 | 85.9 | 13.0 | 5.7 | 5.5 |  |  | ++ | substantially blocking in vitro translation of acpP::gfp at 1.25x molar excess
RNA-F: 10mer 2'-fluorinated RNA antisense oligomer, sequence CTCATACTCT, targeting acpP (all 2'-fluoro, backbone and T or U not given here) | 96.1 | 97.5 | 85.0 | 69.5 | 58.3 |  | slight growth retardation was observed at 5 µM and 10 µM | - | 
RNA-MOE: 10mer 2'-methoxyethylated RNA antisense oligomer, sequence CTCATACTCT, targeting acpP (all 2'-MOE, backbone and methylation of C not given here) | 88.5 |  | 5.1 | 3.3 | 3.4 |  | slight growth retardation was observed at 5 µM and 10 µM | - | substantially blocking in vitro translation of acpP::gfp at 1.25x molar excess
RNA-OMe: 10mer 2'-methylated RNA antisense oligomer, sequence CTCATACTCT, targeting acpP (all 2'-O-methyl, backbone and T or U not given here) | 91.2 | 100.6 | 90.2 | 89.0 | 83.7 | + | no activity at all | - | 

— paper doi:10.1101/2023.07.11.548539v1, “A side-by-side comparison of peptide-delivered antisense antibiotics employing different nucleotide mimics” (bioRxiv, 2023)
